Patent US8217022B2, “Analogues of 1,3-bis(4-nitrophenyl)triazenes, their pharmaceutically acceptable salts and N-acyl derivatives for tumour treatment” (Rudjer Boskovic Institute, priority 2009, dated 2012)
Like-named read-outs stand apart in the source and are kept apart here.

Legend:
[1] = system: human cervical carcinoma HeLa cells; test: Cytotoxicity by spectrophotometric MTT method on HeLa cells; format: cell-based; details: for IC50: MTT
Protocol: (§1) The human cervical carcinoma HeLa cells were used as a model for testing the cytotoxicity of new compounds. Said cells grow as single-layer culture in nutrient Dulbecco's modified Eagle's medium (DMEM, Gibco Life Technologies, Grand Island, USA) with 10% of fetal bovine serum (Gibco) and antibiotics (penicillin 100 U, streptomicine 0.1 mg, Sigma Chem. Co., St. Louis, USA). They were grown in thermostat at 37° C. with 5% CO2 in a humidified atmosphere in plastic cell culture flasks (BD Falcon, Germany).
The compounds were dissolved in dimethyl sulfoxide (Merck, Darmstadt, Germany) in concentrations of 20-120 mM (depending on the compound) and stored in aliquots at −20° C. as stock solutions. The stock solutions were diluted to the appropriate concentrations just before the experiments.
(§2) The cytotoxicity of new compounds was determined by spectrophotometric MTT method (Michisch et al., Urol Res 18(990)131). It is a colorimetric method based on the ability of living cells to reduce the yellow tetrazolium salt 3-(4,5-dimethylthiazol-2-yl)-2,5-diphenyltetrazolium bromide) (MTT; Merck) to violet formazane crystals using mitochondrial dehydrogenase and cytochrome b and c. The crystals were dissolved in dimethyl sulfoxide (DMSO), followed by spectrophotometric measurement of their absorbance at 545 nm.
(§3) Cells were seeded in 96-well microtitration plates (BD Falcon) (2.5×10^3/180 μl), and incubated overnight at temperature of 37° C. to allow the cells to attach to the growth medium. Next day the compounds were added to the growth medium in a wide range of concentrations, from 0.05 to 100 μM (each concentration in quadruplicate). After 72 hours, the samples were coloured with the MTT dye and left for 3 hours in the thermostat. Formed crystals were dissolved in dimethyl sulfoxide and the absorbance of each sample was measured at 545 nm. The survival of cells was calculated according to the formula: […]
The experiments were repeated 2-3 times. […] IC50 values were read from the curve. IC50 is the concentration of a compound that reduces the survival of treated cells to 50%.
The cytotoxicity of the new compounds was determined on human cervical carcinoma HeLa cells by the spectrophotometric MTT method. It is expressed as IC50 value, i.e. as the concentration of a compound that reduces cell survival to 50%.

[2] = system: human embryonic kidney HEK 293 cells; test: Cytotoxicity by MTT method on HEK 293 cells; format: cell-based; details: HEK 293, MTT; Table 2
[3] = system: HeLa CK cells resistant to cisplatin and cross-resistant to vincristine and methotrexate; test: Cytotoxicity by MTT method on HeLa CK resistant sub-line; format: cell-based, human; details: Table 3
Protocol: as §2
as §3, with “After 72 hours, the samples were coloured with the MTT dye and left for 3 hours in the thermostat.” left out
(§4) The experiments were repeated 2-3 times. […] IC50 values were read from the curve. […]
It was tested on parental cervical carcinoma HeLa cells and their sub-line HeLa CK cells resistant to cisplatin and cross-resistant to vincristine and methotrexate (Osmak and Eljuga, Res Exp Med 193(1993) 389). […] Cytotoxicity was determined by spectrophotometric MTT method and expressed as IC50.

[4] = system: human ovarian adenocarcinoma OVCAR cells; test: Cytotoxicity by MTT method on OVCAR cells; format: cell-based; details: Table 2
[5] = system: CA3 cells resistant to cisplatin and cross-resistant to vincristine, methotrexate and mitomycin C; test: Cytotoxicity by MTT method on CA3 resistant sub-line; format: cell-based; details: Table 3
[6] = system: laryngeal carcinoma HEp-2 cells; test: Cytotoxicity by MTT method on HEp-2 cells; format: cell-based
[7] = system: rhabdomiosarcoma RD cells; test: Cytotoxicity by MTT method on RD cells; format: cell-based; details: Table 2
glioblastoma A1235 cells = test: Cytotoxicity by MTT method on A1235 cells; format: cell-based; details: Table 2
[8] = system: normal human cells, keratinocytes; test: Cytotoxicity on keratinocytes, survival by crystal violet dye; format: cell-based; details: Table 2
Protocol: as §1
The compounds were dissolved in dimethyl sulfoxide (Merck, Darmstadt, Germany) in concentrations of 20-120 mM (depending on the compound) and stored in aliquots at −20° C. as stock solutions. […]
Cells were seeded in 96-well microtitration plates (BD Falcon) (2.5×10^3/180 μl), and incubated overnight at temperature of 37° C. to allow the cells to attach to the growth medium. […] Formed crystals were dissolved in dimethyl sulfoxide and the absorbance of each sample was measured at 545 nm. The survival of cells was calculated according to the formula: […]
as §4
The cytotoxicity was determined by spectrophotometric MTT method (except for keratinocytes, which have low metabolic activity, so their survival was determined by addition of crystal violet dye) and expressed as IC50.

mammalian cells = details: from publication, read-out: cytotoxicity IC50; cited from earlier work
[9] = HeLa cells, 72 hours, Table 1, read-out: Cytotoxicity (IC50 μM)

Q: Which biological activity ([1]; tested during the testing of the compounds of the invention) does the source give for `O=[N+]([O-])c1ccc(N=NNc2ccc([N+](=O)[O-])cc2)cc1` [1,3-bis(4-nitrophenyl)triazene] here?
A: did not show any biological activity

Q: Which IC50 [2] does the source give for `O=[N+]([O-])c1ccc(N=NNc2ccc([N+](=O)[O-])cc2Br)c(Br)c1` [VM-94c] here?
A: 7.9 µM

Q: What about the IC50 [3] of the same compound?
A: 3.9 µM

Q: What about the IC50 [4] of the same compound?
A: 3.4 µM

Q: What about the IC50 [5] of the same compound?
A: 7.2 µM

Q: And the IC50 ([6]; HEp2 parental cells, MTT, Table 3)?
A: 5.5 µM

Q: What about the IC50 ([6]; HEp-2, MTT, Table 2) of the same compound?
A: 5.5 µM

Q: What about the IC50 [7] of the same compound?
A: 5.1 µM

Q: And the IC50 ([1]; HeLa cells, 72 hours, Table 1, listed as VM 94c, read-out: Cytotoxicity (IC50 μM))?
A: 3.65 µM

Q: What about the IC50 ([1]; HeLa parental cells, Table 3, read-out: IC50) of the same compound?
A: 3.4 µM

Q: And the IC50 ([1]; HeLa, Table 2, read-out: IC50)?
A: 3.65 µM

Q: What about the IC50 (glioblastoma A1235 cells) of the same compound?
A: 5.45 µM

Q: And the IC50 [8]?
A: 9.45 µM

Q: With `O=[N+]([O-])c1ccc(N=NNc2ccc([N+](=O)[O-])cc2Br)c(Br)c1` [VM-97] as the compound, how does the IC50 [1, 9] read?
A: 0.45 µM

Q: With `O=[N+]([O-])c1ccc(N=NNc2ccc([N+](=O)[O-])cc2Cl)c(Cl)c1` [VM-102] as the compound, how does the IC50 [1, 9] read?
A: 2.6 µM

Q: With `N=C(N)c1ccc(N=NNc2ccc(C(=N)N)cc2)cc1` [berenil, Berenil] as the compound, how does the IC50 (mammalian cells) read?
A: > 100 µM
